The values below come from patent US8242058B2, “Reagents and methods for appending functional groups to proteins” (Wisconsin Alumni Research Foundation, priority 2006, dated 2012).

A short description of data set [1]: Kinetics of thioester cleavage (release of thiophenolate, absorbance at 410 nm). To be noted: for fold greater k1 value than ethyl amine: pseudo-unimolecular conditions. The method, then: To identify the optimal nitrogen nucleophile for a thioester, kinetic studies were performed on a model chromogenic thioester: AcGlySC6H4-p-NO2. The rate of release of the thiophenolate anion was monitored by measuring the change in absorbance at 410 nm (Scheme 1). Nitrogen nucleophiles with conjugate-acid pKa values ranging from 4.6 to 10.6 (Table 1) were used in the experiments. The logarithmic values of the second-order rate constants (k2) of the unprotonated primary amines were plotted against the pKa values of their conjugate acids to yield the Brønsted plot shown in FIG. 2A. The data were fitted to the equation^[26]: log k2=log(AB)+(β+β′)pKa−log(A10^βpK^a+B10^β′pK^a) (1) In eq 1, A and B are constants, β′ is the slope of the former part of the Brønsted plot, and β is the slope of the latter part.
Kinetics of thioester cleavage: AcGlySC6H4-p-NO2 was dissolved in anhydrous acetonitrile to a concentration of 0.45 mM and used immediately. Amine solutions (except CF3CH2NH2.HCl) were prepared by dissolving the amine hydrochloride salts in 0.10 M sodium phosphate buffer at pH 7.0 to a concentration of 0.15 M. Reaction mixtures were prepared in a 1,1-mL volume and equilibrated at 25° C. All reactions contained […] acetonitrile. The ionic strength of each reaction mixture was I=0.22-0.25. All reactions were carried out with a large excess of amine and followed pseudo-first-order kinetics. In a cuvette containing 0.10 M sodium phosphate buffer at pH 7.0 (967 μL), amine solution (0.15 M, 100 μL) was added and the absorbance at 410 nm was adjusted to zero. The thioester (33 μL of a 0.45 mM solution in acetonitrile) was then added to the cuvette, and the absorbance at 410 nm was monitored with time (ε=11,230 M^−1cm^−1 for p-nitrothiophenolate anion). […] This value is likely to be lower in an aqueous buffer, such that the ionization of the p-nitrothiophenol product is virtually complete in all our assays. The final concentration of the thioester in the reaction was 13.64 μM and the final concentration of the amines (except CF3CH2NH2.HCl) was 13.64 mM. Each reaction was performed in triplicate. The reactions were allowed to go to completion, and the t1/2 was determined from the kinetic trace. The t1/2 was corrected by subtracting the t1/2 for hydrolysis from the observed value. Pseudo-first-order rate constants were calculated by using the equation k1=0.693/t1/2. Second-order rate constants were obtained by dividing each observed first-order rate constant by the concentration of free amine. Logarithmic values of second-order rate constants were plotted against the pKa values of the conjugate acids of the respective amines to yield a Brønsted plot.
Using a higher buffer concentration was not ideal, as that would increase the ionic strength to a much value much larger than that in other reaction mixtures. To overcome these problems, the reaction with CF3CH2NH2 was carried out using 40.92 mM CF3CH2NH2.HCl and allowing the pH of the reaction mixture to decrease to 5.8. The observed t12 was corrected by subtracting the t12 for hydrolysis at pH 5.8. The second-order rate constant was calculated by accounting for the concentration of free amine at pH 5.8, and the resulting value was used in the Brønsted plot. The first-order rate constant thus obtained was not compared to those for the other nucleophiles.

For data set [2] the following is noted: cited from earlier work.
The nature of data set [3]: Storage stability of the reagent. To be noted: TFA salt, storage under vacuum. In kind it is physicochemical. From the text:
Azide 2 was synthesized by the route in Scheme 3. Briefly, 4-pentenoic acid was subjected to ozonolysis, and the resulting aldehyde was reacted in-situ with Boc-protected hydrazine. The azido group was installed by coupling 1-azido-2-aminoethane (4) to the carboxylic acid. The hydrazone was then reduced selectively with NaCNBH3. The Boc group was removed to produce azide 2 as its trifluoroacetic acid (TFA) salt with an overall yield of 26% (which includes the 80% yield for the synthesis of azide 3).

In data set [4] the test system is 6-carboxyfluorescein-dArU(dA)2-6-carboxytetramethylrhodamine. Kind of data set: RNase A activity assay on immobilized RNase A. In kind it is biochemical. The following applies: chip overlaid with 10 μM protein, pH 6.0. The method, then:
RNase A activity assay on immobilized RNase A. A phosphinothioester chip was overlaid with azido-RNase A (10 μM in 5% DMF/H2O) for 15 min in Ar(g) atmosphere in an AtmosBag™ to immobilize RNase A via Staudinger ligation. The chip was rinsed with sodium phosphate buffer (25 mM) at pH 7.5 (2×20 mL) and then introduced into a vial containing 2-(N-Morpholino)ethanesulfonic acid buffer (0.1 M) at pH 6.0 (22 mL, containing 0.1 M NaCl). A fluorogenic substrate of RNase A, 6-carboxyfluorescein-dArU(dA)2-6-carboxytetramethylrhodamine (10 μl of a 40 μM solution), was introduced into the vial. The vial was placed on a shaker and 2 mL aliquots were withdrawn at various time intervals and the fluorescence measured (λex=493 nm, λem=515 nm). The fluorescence intensity was plotted against time. A phosphinothioester chip was overlaid with wt-RNase A (10 μM in 5% DMF/H2O) and rinsed with sodium phosphate buffer (25 mM) at pH 7.5 (2×20 mL) and a similar assay was performed. As a negative control, a similar assay was performed on a phosphinothioester chip which was not overlaid with RNase A. The percentage of the fluorescent substrate cleaved at various time intervals were subtracted from the corresponding values for the negative control to generate the graph in FIG. 8.

Data set [5] has as its target T1, ribonuclease inhibitor protein (RI) (Homo sapiens, UniProt P13489).
T1 sequence (P13489 2-461 limits assumed): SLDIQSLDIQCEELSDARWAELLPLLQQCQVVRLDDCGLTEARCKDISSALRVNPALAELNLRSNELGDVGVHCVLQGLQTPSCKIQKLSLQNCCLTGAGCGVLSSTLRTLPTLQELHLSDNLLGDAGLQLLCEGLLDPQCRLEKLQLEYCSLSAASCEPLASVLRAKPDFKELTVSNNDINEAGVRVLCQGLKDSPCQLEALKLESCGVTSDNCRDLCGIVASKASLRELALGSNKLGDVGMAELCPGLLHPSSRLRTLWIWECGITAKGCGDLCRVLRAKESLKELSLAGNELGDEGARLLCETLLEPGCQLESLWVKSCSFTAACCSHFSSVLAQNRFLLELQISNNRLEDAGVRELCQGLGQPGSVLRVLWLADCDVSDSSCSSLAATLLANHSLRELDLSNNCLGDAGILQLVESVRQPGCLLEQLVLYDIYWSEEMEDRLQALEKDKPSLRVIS
Put plainly: RI binding to immobilized RNase A (immunoassay, ellipsometry). The following applies: RI 10 μM, 10 min at 4° C. How it is done:
RI binding to immobilized RNase A. Azido-RNase A (1 μL, 10 μM in 5% DMF/water) was spotted on phosphinothioester-displaying SAMs on a gold chip for 15 minutes at r.t. in an AtmosBag™ filled with Ar(g). The chip was taken out of the bag and rinsed with sodium phosphate buffer (25 mM) at pH 7.5 (2×20 mL) and incubated in the same buffer for 30 min to remove non-specifically bound RNase A. RI (10 μM in sodium phosphate buffer (25 mM) at pH 7.5 containing 10 mM DTT) was overlaid on the chip for 10 min at 4° C. The chip was then rinsed with sodium phosphate buffer (25 mM) at pH 7.5 containing 10 mM DTT (2×20 mL) and incubated in the same buffer for 15 min.
Detection of RI bound to immobilized RNase A. (i) Immunoassay: After RI binding, the chip was overlaid with bovine serum albumin (2.0 mg/mL in sodium phosphate buffer (25 mM) at pH 7.5) for 15 min. The chip was rinsed with sodium phosphate buffer (25 mM) at pH 7.5 (2×20 mL) and subsequently incubated with chicken primary antibody to RI (12.5 μg/mL in sodium phosphate buffer (25 mM) at pH 7.5) for 15 min. […] The chip was scanned with a Genomic Solutions® GeneTac UC4×4 Fluorescence Scanner using a gain of 50. […]

Regarding `CCOC(=O)CNN` [C2H5O(O)CCH2NHNH2], the “fold greater k1 value than ethyl amine” value in data set [1] (pH 7.0, 25° C.) is 30 fold. In addition, the “pKa of conjugate acid” value in data set [2] is 6.45^[24].
Take `CNN` [CH3NHNH2]: the “fold greater k1 value than ethyl amine” value in data set [1] (pH 7.0, 25° C.) was 100 fold. In data set [2], the “pKa of conjugate acid” value is 7.87^[25].
For `COC(=O)CN` [CH3O(O)CCH2NH2], in data set [2], the “pKa of conjugate acid” value was 7.75^[22].
As for `CON` [CH3ONH2], in data set [2], the “pKa of conjugate acid” value was 4.60^[22].
For “CF3CO2H.H2NNHCH2CH2CH2CONHCH2CH2N3 [azide 2]”, the “rate constants (k2 and k1) for thioester cleavage” value in data set [1] (pH 7.0, 25° C.) is “much lower than those of methylhydrazine”. Also, in data set [3], the stability on storage result was “unstable”.
As to `CCN` [CH3CH2NH2], the “nucleophilicity of unprotonated amines (k2, Brønsted plot)” value in data set [1] (all amines deprotonated, 25° C.) is “best nucleophile”. For the same molecule, the “pKa of conjugate acid” value in data set [2] was 10.63^[22].
In the case of `NCC(F)(F)F` [F3CCH2NH2], the “nucleophilicity at pH 7.0 (aminolysis versus hydrolysis)” value in data set [1] (pH 7.0, standard reaction conditions) is recorded as “poor nucleophile”. Further, the “pKa of conjugate acid” value in data set [2] was 5.40^[23].
On to `NCCO` [HOCH2CH2NH2], for which the “pKa of conjugate acid” value in data set [2] is 9.50^[22].

B1: wild-type RNase A: bovine pancreatic ribonuclease (RNase A), unmodified wild-type, Sigma Chemical (protein, UniProt P61823 27-150, looked up)
Ribonuclease pancreatic: KETAAAKFERQHMDSSTSAASSSNYCNQMMKSRNLTKDRCKPVNTFVHESLADVQAVCSQKNVACKNGQTNCYQSYSTMSITDCRETGSSKYPNCAYKTTQANKHIIVACEGNPYVPVHFDASV
Take B1: the “enzymatic activity of chip incubated with the protein (increase of fluorescence intensity)” value in data set [4] was “small enzymatic activity”. The “RI binding to chip incubated with the protein” value in data set [5] is “No RI binding was observed”.
